These results are taken from patent publication US20060183147A1, “Methods of identifying genes which modulate myelination” (Elan Pharmaceuticals, Inc., priority 2005, published 2006).

Structures are written as SMILES.

Common to all, as to type: cell-based, rat
Assay [1] deals with optic nerve oligodendrocytes. Nature of the assay: In vitro myelination assay: co-culture of retinal ganglion cells and optic nerve oligodendrocytes. As for the experimental part: Co-cultures of RGCs and optic nerve oligodendrocytes were prepared and used as follows. Purified oligodendrocytes were plated on PDL/merosin (Chemicon) substrate-coated tissue culture dishes in defined DMEM Sato medium, promoting proliferation for two days. After 2 days, the medium was switched to defined DMEM Sato medium, which contained factors to promote differentiation. Twenty-four hours after the switch to differentiation medium, ADORA1 agonists were added. Retinal ganglion cells were plated 24 hours thereafter, and the medium consisted of 50% astrocyte-conditioned medium (method see above) with DMEM Sato medium mixed with fresh defined Neurobasal™ (Invitrogen) Sato medium, containing B27™ supplement and growth factors (BDNF and CNTF), to promote retinal ganglion cell survival and 0.5% FBS. The FBS was added to help retinal ganglion cell survival. This is because forskolin, which up-regulates cAMP, could not be used when adding any ADORA agonists or antagonists, since these receptors are G-protein-coupled receptors and therefore, regulators of cAMP themselves. Cultures were grown for two weeks, with medium changes occurring every three days.
Optic nerve or cortical oligodendrocytes were purified from postnatal day 2-day 5 old rat pups by immuno-panning with the A2B5 antibody (ATCC). Retinal ganglion cells were purified from 5 day old rats by immunopanning with the Thy1 antibody T11D7.
Purified oligodendrocytes were plated on PDL/merosin substrate-coated tissue culture dishes in defined DMEM Sato medium, promoting proliferation for two days. After 2 days, the medium was switched to defined DMEM Sato medium, containing factors promoting differentiation. Twenty-four hours after the switch to differentiation medium, ADORA1 agonists were added. Retinal ganglion cells were plated 24 hours thereafter, and medium consisted of astrocyte-conditioned medium with DMEM Sato medium mixed with defined Neurobasal™ Sato medium, containing growth factors promoting retinal ganglion cell survival and 0.5% FBS.
Cultures were grown for two weeks, with medium changes occurring every three days. Control co-cultures were devoid of myelin segments, whereas oligodendrocytes co-cultures with ADORA1 agonist contained myelin segments originating from approximately 90% of the oligodendrocytes in these cultures.
To address whether the effect of the adenosine 1 receptor (ADORA1) agonist only affects oligodendrocytes, or also affects retinal ganglion cells (RGCs) to lead to myelination, purified rat optic nerve oligodendrocytes were plated on PEI-pre-coated culture dishes (6-well plates, Falcon BD) in mitogenic medium and cultured for two days. After two days, oligodendrocytes were switched to differentiation medium and the agonist MECA (Sigma) was added at a 200 μM concentration to this culture medium 24 hours later. The agonist was removed by washing the cells at 24, 48 and 72 hours, respectively, after its administration. Oligodendrocytes were subsequently taken off the PEI plates by incubation with Trypsin (535 units/ml) in Earle's Balanced Salt Solution (EBSS; Invitrogen) at 37° C. for 5 minutes, washed with PBS containing 30% FBS (Hyclone) and were plated onto RGCs grown for one week on PDL/merosin substrate. Cultures were fixed for immunohistochemistry two weeks after co-plating the oligodendrocytes with the RGCs. Since the oligodendrocytes were pre-incubated separately with the ADORA1 agonist before they were added to the RGCs, the myelin figures observed in FIG. 6 are due to the switch in the oligodendrocytes themselves from a non-myelinating to a myelinating phenotype.
To address the question of whether it is a permanent or a reversible switch if the oligodendrocytes are cultured without neurons, oligodendrocytes were treated with ADORA1 agonist for 72 hours and kept in culture alone for another 5 days. Cultured oligodendrocytes were then removed from the PEI-coated plate and co-cultured with RGCs grown for one week in culture. […]

Assay [2] has as its system optic nerve oligodendrocytes. Kind of assay: Gene expression profiling, control vs 1-day MECA-treated ON-oligodendrocytes. As to conditions: p-value <0.05, 1.2 fold-change cutoff. The procedure: Based on the results obtained with rhoA expression, 24 hours was selected as the first time point in a broader gene expression analysis. Total RNA was isolated from control, and MECA-stimulated oligodendrocytes were harvested 24 hours after the addition of MECA. RNA samples were generated in triplicate, each replicate generated by pooling RNA from three separate oligodendrocyte preps (one prep from 12 litters (10 pups each) of post-natal day 5 SD pups). RNA samples were analyzed by gene expression profiling using the Affymetrix GeneChip™ Rat genome 230 2.0 Array that provides coverage of approximately 30,000 transcripts, i.e., the entire transcribed rat genome. RNA submitted was amplified by Expression Analysis using the MessageAmp II aRNA kit from Ambion to generate sufficient amounts of RNA for hybridization to arrays. A2B5 and cells were plated in 6-well plates and allowed to divide for 48 hours. Approximately 500,000 cells were plated per well. Two micrograms of RNA was subsequently used for analysis.
To identify gene expression changes occurring during myelination, total RNA was isolated from control and MECA-stimulated oligodendrocytes 24 hours after the addition of MECA. RNA samples were generated in triplicate, each replicate generated by pooling RNA from three separate oligodendrocyte preps. RNA samples (2 μg/sample) were submitted to Expression Analysis for gene expression profiling using the Affymetrix GeneChip™ Rat genome 230 2.0 Array that provides coverage of approximately 30,000 transcripts. RNA submitted using the MessageAmp II aRNA kit from Ambion to generate sufficient amounts of RNA for hybridization to arrays.

Assay [3] relates to MOG surface expression in optic nerve oligodendrocytes. Nature of the assay: MOG cell surface label, optic nerve oligodendrocytes. The settings on record: after 6 days; control oligodendrocytes up-regulated MOG. The procedure: (§1) Purified rat optic nerve and enriched rat cortical oligodendrocytes were first grown in mitogenic medium and then switched to differentiation medium. Stimulated oligodendrocytes received the ADORA1 agonist, MECA, 24 hours later. Optic nerve oligodendrocytes were assessed 2, 4, and 6 days post MECA treatment, cortical oligodendrocytes, 3, 5, and 7 days post treatment. For the MOG cell surface label, cells were incubated with the anti-MOG antibody (1 μg/ml) for one hour at room temperature in phosphate buffered saline (PBS) containing sodium-pyruvate and glucose (Invitrogen) to ensure survival of cells during this time. Subsequently the cells were fixed, incubated in PBS containing 50% goat serum at RT for 30 minutes and incubated with a secondary antibody (FITC- or Cy3-coupled goat anti-mouse IgG antibody from Jackson Immunoresearch).

For assay [4], the system named is MOG surface expression in cortical oligodendrocytes. Kind of assay: MOG cell surface label, cortical oligodendrocytes (time course and dose response). As for the experimental part:
as §1
To determine whether the surface expression of MOG would follow the same time course as that observed for the ADORA1 agonist, MECA, in the optic nerve myelination system, oligodendrocyte-enriched cortical cells were plated on PEI-coated plates in mitogenic medium, containing PDGFAA, and NT3 as factors stimulating proliferation. After 3 days, cells were switched to differentiation medium containing CNTF and NT3. 200 μM MECA was added either the same day or 24 hours later and was incubated on the cells for 24 hours, 48 hours, 72 hours, 4 days, and 7 days continuously. The cells were surface-labeled with an antibody to MOG, after the described incubation. For the ADORA1 agonist dose response experiment, MECA was added at concentrations of 200 μM, 100 μM, 50 μM, 25 μM and 12.5 μM, 24 hours after switching to differentiation medium, and was incubated on the cells continuously. On day 7, cells were surface-labeled with an anti-MOG antibody.

For `CNC(=O)[C@H]1O[C@@H](n2cnc3c(N)ncnc32)[C@H](O)[C@@H]1O` [MECA, 5′-N-methylcarboxamidoadenosine], in assay [1] (MECA present throughout the two weeks of co-culture with RGCs), the “amount of myelin figures with continuous agonist” value is recorded as “optimal amount of myelin figures”. The “myelin formation versus control cultures” value in assay [1] (after eight days in co-culture) is on record as “myelin was observed covering the whole length of an axon”; in assay [1] (after five days in co-culture), “no significant difference”; in assay [1] (after two weeks in co-culture), “the segments (internodes) form”. For the same compound, the “switch from non-myelinating to myelinating phenotype: permanent or reversible” value in assay [1] (agonist 72 hours, then 5 days in culture alone, then co-culture with RGCs two weeks) was “permanent switch”. The “doses that would not produce myelin segments” value in assay [1] (optic nerve myelination system dose-response) is listed as “below 100 μM”. Besides, in assay [2], the “overlap of differentially regulated genes between ON- and cortical oligodendrocytes” value amounted to 414 genes. Also, the “total differentially regulated genes in the group comparison” value in assay [2] stood at 1831 genes. Moreover, the “genes exclusive to ON-oligodendrocytes” value in assay [2] (versus cortical oligodendrocytes) came out at 1417 genes. The “MOG protein expression on the cell surface” value was “remained low” in assay [3] and “remained low” in assay [4] (after 7 days, control oligodendrocytes up-regulated MOG). The “time MECA must be present to repress MOG surface expression” value in assay [4] (200 μM MECA) is “at least 72 hours”. The “concentrations insufficient to repress MOG surface expression” value in assay [4] (continuous incubation, surface label on day 7) is “below 100 μM”.
